Reference: the NIST ThermoML archive (doi:10.1016/j.fluid.2007.07.016)

Experiment: xn = mol fraction of the nth substance listed
Conditions: 101 kPa, Liquid; for viscosity: Capillary tube (Ostwald / Ubbelohde) method; for speed of sound: Linear variable-path acoustic interferometer

Cc1cc(C)cc(C)c1 [1,3,5-trimethylbenzene] + C1CCOC1
Conditions | speed of sound, 288.15 K [m/s] | speed of sound, 298.15 K [m/s] | speed of sound, 308.15 K [m/s] | speed of sound, 318.15 K [m/s] | viscosity, 288.15 K [mPa·s] | viscosity, 298.15 K [mPa·s] | viscosity, 308.15 K [mPa·s] | viscosity, 318.15 K [mPa·s]
x2 = 0 | 1412.3 | 1369.8 | 1325.2 | 1279 | 0.7592 | 0.6572 | 0.5792 | 0.5066
x2 = 0.0735 | 1406.8 | 1363.6 | 1318.5 | 1272.2 | 0.7428 | 0.6449 | 0.5698 | 0.5004
x2 = 0.1513 | 1400.3 | 1356.6 | 1311.2 | 1264.9 | 0.7259 | 0.6321 | 0.5602 | 0.4943
x2 = 0.2274 | 1393.5 | 1349.5 | 1303.9 | 1257.7 | 0.7089 | 0.6192 | 0.5502 | 0.4875
x2 = 0.2986 | 1386.7 | 1342.4 | 1296.7 | 1250.6 | 0.6927 | 0.6066 | 0.5402 | 0.4805
x2 = 0.3672 | 1379.7 | 1335.3 | 1289.6 | 1243.6 | 0.6767 | 0.594 | 0.5301 | 0.4732
x2 = 0.4305 | 1373.5 | 1328.9 | 1283.1 | 1237.3 | 0.6616 | 0.5821 | 0.5203 | 0.4658
x2 = 0.4912 | 1367.5 | 1322.9 | 1277 | 1231.5 | 0.647 | 0.5703 | 0.5106 | 0.4583
x2 = 0.5496 | 1361.9 | 1317.3 | 1271.4 | 1226 | 0.6326 | 0.5586 | 0.5008 | 0.4507
x2 = 0.6055 | 1356.8 | 1312 | 1266.1 | 1220.8 | 0.6186 | 0.5472 | 0.4911 | 0.4429
x2 = 0.6784 | 1350.4 | 1305.4 | 1259.4 | 1214.4 | 0.6 | 0.5318 | 0.4779 | 0.4322
x2 = 0.7516 | 1344 | 1298.8 | 1252.8 | 1207.9 | 0.5809 | 0.5159 | 0.4642 | 0.4208
x2 = 0.828 | 1337.4 | 1292.1 | 1246 | 1201.2 | 0.5609 | 0.499 | 0.4494 | 0.4084
x2 = 0.879 | 1333.2 | 1287.7 | 1241.6 | 1196.9 | 0.5469 | 0.4872 | 0.4388 | 0.3992
x2 = 0.9412 | 1328.2 | 1282.6 | 1236.4 | 1191.8 | 0.5299 | 0.4726 | 0.4258 | 0.3879
